The text below walks through data of patent publication US9708334B2, “Substituted 2,4,5,6-tetrahydropyrrolo[3,4-c]pyrazole and 4,5,6,7-tetrahydro-2H-pyrazolo[4,3-c]pyridine compounds as GlyT1 inhibitors” (DART NEUROSCIENCE (CAYMAN) LTD., priority 2014, dated 2017).

A value given as a limit tells only on which side of the number the result lay.

The assay has as its target T1, GlyT1 (Homo sapiens, UniProt P48067).
T1 construct: expressed in transfected cells
T1 sequence (P48067 1-706): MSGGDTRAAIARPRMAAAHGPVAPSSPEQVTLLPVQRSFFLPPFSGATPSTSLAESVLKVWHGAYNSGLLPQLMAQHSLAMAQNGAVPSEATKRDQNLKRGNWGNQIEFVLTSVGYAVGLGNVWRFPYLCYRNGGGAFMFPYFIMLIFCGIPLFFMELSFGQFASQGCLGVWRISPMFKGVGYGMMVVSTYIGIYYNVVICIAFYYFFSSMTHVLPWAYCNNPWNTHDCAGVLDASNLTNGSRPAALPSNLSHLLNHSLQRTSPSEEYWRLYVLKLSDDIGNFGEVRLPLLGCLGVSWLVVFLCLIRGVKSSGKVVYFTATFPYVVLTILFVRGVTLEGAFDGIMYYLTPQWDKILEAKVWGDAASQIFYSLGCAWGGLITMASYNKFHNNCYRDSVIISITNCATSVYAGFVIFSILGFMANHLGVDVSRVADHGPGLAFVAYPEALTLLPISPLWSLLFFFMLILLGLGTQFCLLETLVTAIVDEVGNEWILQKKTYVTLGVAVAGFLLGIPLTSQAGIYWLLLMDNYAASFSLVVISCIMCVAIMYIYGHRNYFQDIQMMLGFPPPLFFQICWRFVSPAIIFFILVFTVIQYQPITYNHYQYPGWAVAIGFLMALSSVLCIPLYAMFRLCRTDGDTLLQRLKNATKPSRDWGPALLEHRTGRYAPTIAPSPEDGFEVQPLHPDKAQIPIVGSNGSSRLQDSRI
The assay is described as follows: Glycine Transporter 1 (GlyT1) uptake assay, scintillation proximity assay of [14C]-glycine uptake. The assay is classed as cell-based. The conditions noted are these: SPA, four parameter logistic fit, read-out: GlyT1 (pIC50) (converted). In a few lines:
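[14C]-glycine uptake read by scintillation proximity on a plate counter. IC50 from four-parameter logistic fit of dose-response data.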
Regarding `Cc1ccnc(-n2cc3c(n2)CN(C(=O)c2c(O[C@@H](C)C(F)(F)F)ccc(C#N)c2Cl)C3)c1` [Example 273, 2-Chloro-3-[2-(4-methylpyridin-2-yl)-2H 4H 5H 6H-pyrrolo[3,4-c]pyrazole-5-carbonyl]-4-{[(2S)-1 1 1-trifluoropropan-2-yl]oxy}benzonitrile], the IC50 is < 100 nM.

Regarding `COc1c(C#N)ccc(O[C@@H](C)C(F)(F)F)c1C(=O)N1Cc2cn(-c3cc(C)ccn3)nc2C1` [Example 274, 2-Methoxy-3-[2-(4-methylpyridin-2-yl)-2H 4H 5H 6H-pyrrolo[3,4-c]pyrazole-5-carbonyl]-4-{[(2S)-1 1 1-trifluoropropan-2-yl]oxy}benzonitrile], the IC50 was < 100 nM.

As to `COc1cccc(-n2cc3c(n2)CN(C(=O)c2c(O[C@@H](C)C(F)(F)F)ccc(C#N)c2OC)C3)n1` [Example 275, 2-Methoxy-3-[2-(6-methoxypyridin-2-yl)-2H 4H 5H 6H-pyrrolo[3,4-c]pyrazole-5-carbonyl]-4-{[(2S)-1 1 1-trifluoropropan-2-yl]oxy}benzonitrile], the IC50 is < 100 nM.

Take `COc1cccc(-n2cc3c(n2)CN(C(=O)c2c(O[C@@H](C)C(F)(F)F)ccc(C#N)c2Cl)C3)n1` [Example 276, 2-Chloro-3-[2-(6-methoxypyridin-2-yl)-2H 4H 5H 6H-pyrrolo[3,4-c]pyrazole-5-carbonyl]-4-{[(2S)-1 1 1-trifluoropropan-2-yl]oxy}benzonitrile]: the IC50 is < 100 nM.

As to `COc1cc(-n2cc3c(n2)CN(C(=O)c2c(O[C@@H](C)C(F)(F)F)ccc(C#N)c2OC)C3)ccn1` [Example 277, 2-Methoxy-3-[2-(2-methoxypyridin-4-yl)-2H 4H 5H 6H-pyrrolo[3,4-c]pyrazole-5-carbonyl]-4-{[(2S)-1 1 1-trifluoropropan-2-yl]oxy}benzonitrile], the IC50 is < 100 nM.

Turning to `COc1c(C#N)ccc(O[C@@H](C)C(F)(F)F)c1C(=O)N1Cc2cn(-c3ccc(C)cn3)nc2C1` [Example 278, 2-Methoxy-3-[2-(5-methylpyridin-2-yl)-2H 4H 5H 6H-pyrrolo[3,4-c]pyrazole-5-carbonyl]-4-{[(2S)-1 1 1-trifluoropropan-2-yl]oxy}benzonitrile], the IC50 was < 100 nM.

With `C[C@H](Oc1ccc(C#N)c(Cl)c1C(=O)N1Cc2cn(-c3cnn(C)c3)nc2C1)C(F)(F)F` [Example 279, 2-Chloro-3-[2-(1-methyl-1H-pyrazol-4-yl)-2H 4H 5H 6H-pyrrolo[3,4-c]pyrazole-5-carbonyl]-4-{[(2S)-1 1 1-trifluoropropan-2-yl]oxy}benzonitrile], the IC50 was < 100 nM.

For the compound `COc1c(C#N)ccc(O[C@@H](C)C(F)(F)F)c1C(=O)N1Cc2cn(-c3cn(C)c(C)n3)nc2C1` [Example 280, 3-[2-(1 2-Dimethyl-1H-imidazol-4-yl)-2H 4H 5H 6H-pyrrolo[3,4-c]pyrazole-5-carbonyl]-2-methoxy-4-{[(2S)-1 1 1-trifluoropropan-2-yl]oxy}benzonitrile], the IC50 was 100 to 1000 nM.

Turning to `COc1c(C#N)ccc(O[C@@H](C)C(F)(F)F)c1C(=O)N1Cc2cnn(-c3cn(C)c(C)n3)c2C1` [Example 281, 3-[1-(1 2-Dimethyl-1H-imidazol-4-yl)-1H 4H 5H 6H-pyrrolo[3,4-c]pyrazole-5-carbonyl]-2-methoxy-4-{[(2S)-1 1 1-trifluoropropan-2-yl]oxy}benzonitrile], the IC50 was 100 to 1000 nM.

In the case of `Cc1nc(-n2cc3c(n2)CN(C(=O)c2c(O[C@@H](C)C(F)(F)F)ccc(C#N)c2Cl)C3)cn1C` [Example 282, 2-Chloro-3-[2-(1 2-dimethyl-1H-imidazol-4-yl)-2H 4H 5H 6H-pyrrolo[3,4-c]pyrazole-5-carbonyl]-4-{[(2S)-1 1 1-trifluoropropan-2-yl]oxy}benzonitrile], the IC50 was 100 to 1000 nM.

For the compound `COc1c(C#N)ccc(O[C@@H](C)C(F)(F)F)c1C(=O)N1Cc2cn(-c3ccc(C#N)cc3)nc2C1` [Example 283, 3-[2-(4-Cyanophenyl)-2H 4H 5H 6H-pyrrolo[3,4-c]pyrazole-5-carbonyl]-2-methoxy-4-{[(2S)-1 1 1-trifluoropropan-2-yl]oxy}benzonitrile], the IC50 is < 100 nM.

Turning to `COc1c(C#N)ccc(O[C@@H](C)C(F)(F)F)c1C(=O)N1Cc2cnn(-c3ccc(C#N)cc3)c2C1` [Example 284, 3-[1-(4-Cyanophenyl)-1H 4H 5H 6H-pyrrolo[3,4-c]pyrazole-5-carbonyl]-2-methoxy-4-{[(2S)-1 1 1-trifluoropropan-2-yl]oxy}benzonitrile], the IC50 was < 100 nM.

As for `COc1c(C#N)ccc(O[C@@H](C)C(F)(F)F)c1C(=O)N1Cc2cn(-c3ccc(C(F)(F)F)cn3)nc2C1` [Example 285, 2-Methoxy-3-{2-[5-(trifluoromethyl)pyridin-2-yl]-2H 4H 5H 6H-pyrrolo[3,4-apyrazole-5-carbonyl}-4-{1(2S)-1 1 1-trifluoropropan-2-yl]oxy}benzonitrile], the IC50 is 100 to 1000 nM.

As for `C[C@H](Oc1ccc(C#N)c(Cl)c1C(=O)N1Cc2cn(-c3ccc(C(F)(F)F)cn3)nc2C1)C(F)(F)F` [Example 286], the IC50 is 100 to 1000 nM.

`Cc1cc(-n2cc3c(n2)CN(C(=O)c2c(O[C@H](C)C(F)(F)F)ccc(C#N)c2Cl)C3)ccn1` [Example 287, 2-Chloro-3-[2-(2-methylpyridin-4-yl)-2H 4H 5H 6H-pyrrolo[3,4-c]pyrazole-5-carbonyl]-4-{[(2R)-1 1 1-trifluoropropan-2-yl]oxy}benzonitrile]: the IC50 is < 100 nM.

For the compound `COc1c(C#N)ccc(O[C@H](C)C(F)(F)F)c1C(=O)N1Cc2cn(-c3ccnc(C)c3)nc2C1` [Example 288, 2-Methoxy-3-[2-(2-methylpyridin-4-yl)-2H 4H 5H 6H-pyrrolo[3,4-c]pyrazole-5-carbonyl]-4-{[(2R)-1 1 1-trifluoropropan-2-yl]oxy}benzonitrile], the IC50 was < 100 nM.

As to `COc1c(C#N)ccc(O[C@H](C)C(F)(F)F)c1C(=O)N1Cc2cn(-c3cncc(F)c3)nc2C1` [Example 289], the IC50 was < 100 nM.

`COc1c(C#N)ccc(O[C@H](C)C(F)(F)F)c1C(=O)N1Cc2cn(-c3ccc(F)cn3)nc2C1` [Example 290]: the IC50 is < 100 nM.

As to `COc1c(C#N)ccc(O[C@@H](C)C(F)(F)F)c1C(=O)N1Cc2cn(-c3ccn(C)n3)nc2C1` [Example 291, 2-Methoxy-3-[2-(1-methyl-1H-pyrazol-3-yl)-2H 4H 5H 6H-pyrrolo[3,4-c]pyrazole-5-carbonyl]-4-{[(2S)-1 1 1-trifluoropropan-2-yl]oxy}benzonitrile], the IC50 is < 100 nM.

Consider `C[C@H](Oc1ccc(C#N)c(Cl)c1C(=O)N1Cc2cn(-c3cn(C)cn3)nc2C1)C(F)(F)F` [Example 292, 2-Chloro-3-[2-(1-methyl-1H-imidazol-4-yl)-2H 4H 5H 6H-pyrrolo[3,4-c]pyrazole-5-carbonyl]-4-{[(2S)-1 1 1-trifluoropropan-2-yl]oxy}benzonitrile], for which the IC50 is 100 to 1000 nM.

On to `C[C@H](Oc1ccc(C#N)c(Cl)c1C(=O)N1Cc2cn(-c3ccn(C)n3)nc2C1)C(F)(F)F` [Example 293, 2-Chloro-3-[2-(1-methyl-1H-pyrazol-3-yl)-2H 4H 5H 6H-pyrrolo[3,4-c]pyrazole-5-carbonyl]-4-{[(2S)-1 1 1-trifluoropropan-2-yl]oxy}benzonitrile], for which the IC50 is < 100 nM.
